Assay results from PubChem BioAssay (NCI).
“And” between values parts separate entries of the source, which are not always exact repeats. Equal values may be shown once.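 Cells were grown in 96-well plates and exposed to each compound for 48 hours at five concentrations; endpoints were interpolated linearly between bracketing concentrations, or set to the highest concentration if not reached. GI50 is the concentration that inhibits growth by half. Definition used: TGI = concentration required for complete inhibition of growth.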

Experiments:
Experiment in all cases: NCI anticancer screen, dose series, 48 h
UACC-257 melanoma = test system: UACC-257 melanoma
SNB-75 CNS = test system: SNB-75 CNS
MDA-MB-435 = test system: MDA-MB-435
SK-MEL-5 melanoma = test system: SK-MEL-5 melanoma
MCF7 breast = test system: MCF7 breast
HT29 colon = test system: HT29 colon
HS 578T breast = test system: HS 578T breast
CCRF-CEM leukemia = test system: CCRF-CEM leukemia
MALME-3M melanoma = test system: MALME-3M melanoma
T-47D breast = test system: T-47D breast

Structure (SMILES)	TGI (UACC-257 melanoma)	TGI (SNB-75 CNS)	TGI (MDA-MB-435)	TGI (SK-MEL-5 melanoma)	TGI (MCF7 breast)	TGI (HT29 colon)	TGI (HS 578T breast)	TGI (CCRF-CEM leukemia)	TGI (MALME-3M melanoma)	TGI (T-47D breast)	GI50 (UACC-257 melanoma)	GI50 (SNB-75 CNS)	GI50 (MDA-MB-435) [µM]	GI50 (SK-MEL-5 melanoma)	GI50 (MCF7 breast)	GI50 (HT29 colon)	GI50 (HS 578T breast) [µM]	GI50 (CCRF-CEM leukemia)	GI50 (MALME-3M melanoma)	GI50 (T-47D breast) [µM]
O=C(O)/C=C/c1c2ccc(=O)c(O)c-2oc2c(O)c(O)ccc12	> 100 µM	> 100 µM	33.5 µM	> 100 µM	34.8 µM	> 100 µM	> 100 µM	23.2 µM	> 100 µM	> 100 µM										
CC(=O)CC[N+](C)(C)C	54.6 µM	70.3 µM	76.7 µM	59.6 µM	64.8 µM	53.5 µM	> 39.3 µM	13.7 µM	24.2 µM	52.7 µM										
CCN(Cc1cc(Cl)cc(C)c1O)Cc1c(O)ccc2ccccc12	30.4 µM	24.1 µM	29.9 µM	29.4 µM	39.1 µM	28.1 µM	36.5 µM	42.5 µM	29.8 µM	35.8 µM										
O=C(O)c1cccc([As]=[As]c2cccc(C(=O)O)c2)c1 (centres undefined)	> 100 µM	> 100 µM	> 100 µM	96.1 µM	> 100 µM	> 100 µM	90.8 µM	79 µM	43.9 µM	> 100 µM										
CCCC(=O)Oc1ccc(/C(=C(\C)c2ccc(Cl)cc2)c2ccc(OCCN(CC)CC)cc2)cc1	4.18 µM	30.2 µM	3.68 µM	3.21 µM	3.47 µM	4.06 µM	9.33 µM	15.5 µM	3.55 µM	4.88 µM	2.02 µM	12.8 µM	1.78	1.75 µM	0.117 µM	1.85 µM	2.68	4.18 µM	1.74 µM	1.39
O=CNC(Cc1cnc[nH]1)C(=O)O (centres undefined)	> 100 µM	> 100 µM	> 100 µM	> 100 µM	> 100 µM	> 100 µM	> 100 µM	> 100 µM	> 100 µM	> 100 µM										
C[C@H]1C[C@@H](n2c(Nc3ccc(OC(F)(F)F)cc3)nc3cc(CCC(=O)O)ccc32)CC(C)(C)C1	39.4 µM	28 µM	22.9 µM	17.9 µM	22.6 µM	30.9 µM	31.1 µM	44.5 µM	37.3 µM	44.5 µM	16.6 µM	13.8 µM	10.4	5.38 µM	6.29 µM	14.6 µM	10.5	16.2 µM	16.2 µM	14.3
COc1ccc2nc3cc(Cl)ccc3c(Nc3ccccc3-c3ccccc3Nc3c4ccc(Cl)cc4nc4ccc(OC)cc34)c2c1	> 46.4 µM	> 72 µM	> 100 µM	30.7 µM	> 100 µM	55.7 µM	> 100 µM	> 49.2 µM	68.6 µM	75.4 µM										
CC(NCCN(C)C)C1CCC2C3CCc4cc(O)ccc4C3CCC12C (centres undefined)	3.83 µM	10.2 µM	4.7 µM	3.29 µM	11.5 µM	8.45 µM	18.1 µM	3.47 µM	3.73 µM	5.29 µM										
CC(=O)c1cc2c(Br)cccc2oc1=O	> 100 µM	> 100 µM	> 100 µM	> 100 µM	> 100 µM	> 100 µM	> 100 µM	> 100 µM	> 100 µM	> 100 µM										
COc1ccc2[nH]c3c(C)c4c(c(C)c3c2c1)CN(C)C=C4	16.8 µM	0.698 µM	71.2 µM	6.75 µM	> 100 µM	22.3 µM	1.48 µM	34.7 µM	3.92 µM	14.9 µM										
Cc1cc(NC(=O)NCCOc2ccc(N3C(N)=NC(N)=NC3(C)C)cc2Cl)ccc1S(=O)(=O)F	> 49.1 µM	48.3 µM	> 100 µM	11.4 µM	50.3 µM	13.8 µM	76.8 µM	> 67.6 µM	41.1 µM	74.9 µM	4.1 µM	1.53 µM	0.626	1.19 µM	1.7 µM	0.484 µM	9.84	0.805 µM	7.46 µM	5.13
CCC/C=C/C=C/C(=O)OC1/C(=C/C(=O)OC)CC2CC(C(C)O)OC(=O)CC(O)CC3CC(OC(C)=O)C(C)(C)C(O)(CC4C/C(=C/C(=O)OC)CC(/C=C/C(C)(C)C1(O)O2)O4)O3 (centres undefined)	6.42 µM and 11 µM and > 12.5 µM	10.9 µM and 9.84 µM and > 12.5 µM	11 µM and > 12.5 µM	10.9 µM and 11 µM and > 12.5 µM	> 10.9 µM and 11 µM and > 12.5 µM	> 10.9 µM and 10.8 µM and > 12.5 µM	10.8 µM and > 12.5 µM	10.9 µM and 11 µM and > 12.5 µM	11 µM and > 12.5 µM	11 µM and > 12.5 µM	5.13 µM and 8.15 µM and > 12.5 µM	10.3 µM and 2.85 µM and > 12.5 µM	> 12.5	7.86 µM and 1.9 µM and > 12.5 µM	> 10.9 µM and 5.88 µM and > 12.5 µM	> 10.9 µM and 5.12 µM and > 12.5 µM	> 12.5	8.79 µM and 5.35 µM and > 12.5 µM	5.71 µM and > 12.5 µM	> 12.5
O=C1/C(=C/c2ccc(F)cc2)COc2ccc(O)c(O)c21	17.7 µM	> 100 µM	8.78 µM	11.7 µM	> 100 µM	> 100 µM	> 100 µM	1.46 µM	4.34 µM	9.67 µM	2.99 µM	1.71 µM	2.07	3.16 µM	1.02 µM	3.37 µM	3.5	0.313 µM	1.68 µM	2.4
Cc1cccc(CNc2c3ccccc3nc3ccccc23)c1	5.05 µM	8.32 µM	3.22 µM	3.14 µM	4.88 µM	10.1 µM	6.6 µM	15 µM	3.17 µM	4.61 µM	2.11 µM	1.08 µM	1.66	1.7 µM	1.9 µM	1.7 µM	2.2	2.77 µM	1.66 µM	1.83
O=[N+]([O-])c1ccc(Sc2cccc[n+]2[O-])c2nonc12	24.7 µM	39.6 µM	20.1 µM	18.7 µM	10.8 µM	29.4 µM	28.1 µM		5.34 µM	6.5 µM	11.5 µM	11.1 µM	6.24	5.72 µM	1.77 µM	3.4 µM	3.66	1.42 µM	2.09 µM	1.69
